Results as given in US20240207409A1, “ORAL DELIVERY OF OLIGONUCLEOTIDES” (CiVi Biopharma, Inc., priority 2021, published 2024).
Where two headings read alike, the source gives them in different places. {GalNAc3NHC6} = trivalent GalNAc moiety with NHC6 linker, (GalNAc3)(NHC6); l = locked nucleic acid (LNA); d = 2'-deoxy (DNA)

Key:
[1] = Liver and intestinal tissue concentrations of CIVI 008 (Example 1); format: in vivo, Cynomolgus monkey
Source text: The purpose of this study was to provide information on the capsule dosing of CIVI 008 for further clinical trials in humans.

PCSK9 = PCSK9 reduction after daily oral CIVI 008/SNAC capsules for 42 days (Example 1); format: in vivo, Cynomolgus monkey; conditions: daily oral for 42 days
Method: (§1) Toxicity results: The study was conducted to GLP standards and monitored the following toxicity parameters throughout the study (pre-dose, day 14, 29, 42, and end of recovery): • Hematology: red blood cell (erythrocyte) count, hemoglobin, hematocrit, mean corpuscular volume, mean corpuscular hemoglobin, mean corpuscular hemoglobin, concentration, red cell distribution width, absolute reticulocyte count, platelet count, white blood cell (leukocyte) count, absolute neutrophil count, absolute lymphocyte count, absolute monocyte count, absolute eosinophil count, absolute basophil count, absolute large unstained cell count, blood smear. • Clinical chemistry, PCSK9 and lipids: urea nitrogen, creatinine, total protein, albumin, globulin, albumin:globulin ratio, total bilirubin, aspartate aminotransferase, alanine aminotransferase, alkaline phosphatase, gamma glutamyltransferase, creatine kinase, calcium, inorganic phosphorus, sodium, potassium, chloride, high density lipoproteins, low density lipoprotein, very low density lipoprotein, total cholesterol, triglycerides.

plasma LDL-cholesterol = experiment: Plasma LDL-cholesterol after daily oral CIVI 008/SNAC capsules for 42 days and recovery (Example 1); format: in vivo, Cynomolgus monkey; conditions: for LDL-c in control animals: control capsules, throughout the study
Method: as §1

[2] = Repeat-dose toxicity study to GLP standards, oral capsule (Example 1); conditions: cynomolgus monkey, in vivo
Method: as §1

[3] = Oral capsule toxicokinetic study of CIVI 008 using 5-CNAC as carrier (Example 3); format: in vivo, Cynomolgus monkey; conditions: for increase of AUC with dose of CIVI 008 / increase of Cmax with dose of CIVI 008: constant dose of 5-CNAC
Source text: The objectives of this study were to determine the ability of 5-CNAC [Disodium N-(5-Chorosalicyloyl)-8-aminocaprylate] to facilitate oral uptake of CIVI 008 and to determine the manufacture method and dosing paradigm of CIVI 008/5-CNAC capsules that provide the most efficient oral uptake of CIVI 008 when administered to Cynomolgus monkeys of Mauritian origin.
Study outline: A total of 10 Cynomolgus monkeys (5 males and 5 females) were each dosed with 2 group A capsules on Monday and Wednesday in week 1, followed by 4 days of dosing holiday. This Monday and Wednesday dosing scheme was continued in weeks 2, 3, 5, 6, 7, 8, 13, 14, 15 and 17 using 2 group B-capsules per dose occasion in week 2, and 1 capsule of groups C to K per dose occasion in their respective weeks. During the dosing period, blood samples for PK analysis were drawn pre-dose and 0.5, 1.5, 3 and 5 hours post-dosing on Mondays and Wednesdays. Samples for clinical chemistry and hematology (see example 1) were taken pre-study and end of study.

[4] = Half-life and accumulation of CIVI 008 in the liver; format: in vivo, non-human primates; conditions: expected after 7-weeks of once daily dosing
[5] = cynomolgus monkey, in vivo, po
Method: The objectives of this study were to evaluate the toxicity and reversibility of CIVI 008 and to determine the pharmacology, plasma exposure and target organ accumulation of CIVI 008 when administered daily by oral capsule to the Cynomolgus monkey of Mauritian origin for 42 days compared to administration by the subcutaneous route administered once every two weeks (investigated previously).
Oral Capsule: Capsules containing CIVI 008 (10 mg)/SNAC (100 mg) were manufactured as uniform dry blend formulations, that were filled into Size 4 hard shell gelatin capsules that were enterically coated post fill.

[6] = Oral capsule PK study of an oligo against Factor VII, with or without GalNAc, using 5-CNAC as carrier (Example 6); format: in vivo, Cynomolgus monkey; conditions: for PK parameters compared to the corresponding CIVI 008 oligos: with and without GalNac
Method: (§2) Study outline: Dry blended capsules (20 mg Factor FVII with or without GalNac/200 mg 5-CNAC) were manufactured from uniform dry blended formulations, that were filled into enterically coated Size 0, hard shell gelatin capsules. A total of 10 Cynomolgus monkeys (5 males and 5 females) were each administered a single capsule of either oligo by oral gavage, and blood samples for PK analysis were drawn pre-dose and 0.5, 1.5, 3 and 5 hours post-dosing.

[7] = Oral capsule PK study of CIVI 008 without GalNAc using 5-CNAC as carrier (Example 5); format: in vivo, Cynomolgus monkey; conditions: single oral capsule, 20 mg/200 mg 5-CNAC; larger
Source text: As shown in previous Examples 1 and 3, orally dosed CIVI 008 with GalNAc is rapidly internalized in the liver by the GalNAc receptor, with very little CIVI 008 escaping into general circulation at doses below that required for saturation of the GalNAc receptor. In many instances the objective is to target genes that are expressed in organs other than the liver. […] The objective of this study was to determine the systemic exposure of orally administered CIVI 008 without the GalNAc conjugate, and to compare the exposure to that of a similar oral dose of CIVI 008 with GalNAc.
as §2, with “CIVI 008” for “Factor FVII with or”, “GalNAc/200” for “GalNac/200”, “capsule” for “capsule of either oligo”

[8] = dose increased further than 25 mg
[9] = oral, two group A capsules (each 10 mg CIVI 008/100 mg 5-CNAC, size 4)
[10] = size 4 (group A) to size 0 (group B) capsules
[11] = single oral capsule, 20 mg/200 mg 5-CNAC
[12] = single oral capsule, 20 mg/200 mg 5-CNAC, higher

## CIVI 008: GalNac conjugated LNA-gapmer antisense oligonucleotide targeting PCSK9 (SEQ ID NO: 134), cepadacursen formulated for oral administration (AATGCTACAAAACCCA; LNA gapmer with GalNAc conjugate, pattern not given here)
[1]; all segments, after QD oral dosing for 42 days
  concentrations of CIVI 008 in intestinal segments: measurable concentrations
[1]; declined during recovery, 3-week timepoint
  concentration of CIVI 008 in the liver during the recovery period: still present in measurable quantities
[1]; measured at the end of the dosing period
  difference in liver concentrations between the SQ and PO arms: approximately one
PCSK9
  mean PCSK9 reductions in control animals: comparatively small
Plasma LDL-cholesterol
  LDL-c in control animals: fluctuated around baseline values
Plasma LDL-cholesterol; end of recovery
  return of LDL to baseline: had yet to fully return to baseline
Plasma LDL-cholesterol; recovery period after 42 days of dosing
  LDL levels after the end of dosing: maintained for two weeks post-dosing
[2]
  macroscopic or microscopic findings (local or systemic effects): no macroscopic or microscopic findings
[2]; po
  local histopathological changes in the intestinal tract (duodenum, jejunum, ileum and colon): no local histopathological changes
[3]; [8]
  increase of AUC with dose of CIVI 008: more than dose proportional
  increase of Cmax with dose of CIVI 008: more than dose proportional
[3]; up to 25 mg CIVI 008
  increase of AUC with dose of CIVI 008: dose proportionally
  increase of Cmax with dose of CIVI 008: dose proportionally
[3]; dose range 5 mg to 30 mg
  AUC profiles, dry blended vs freeze-dried capsules: very similar
  Cmax profiles, dry blended vs freeze-dried capsules: very similar
[3]; dry blending vs co-dissolution followed by freeze-drying
  effect of manufacture method on intestinal absorption: did not appear to affect
[3]; oral capsules, vs Example 1
  AUC0-5 with 5-CNAC carrier compared to a similar dose using SNAC as carrier: increase
  Cmax with 5-CNAC carrier compared to a similar dose using SNAC as carrier: increase
[3]; [9]
  concentrations of CIVI 008 in the plasma: measurable concentrations
  mean Tmax: ≤ 30 min
[3]; [10]
  mean Tmax on increasing capsule size: didn't change
  mean plasma PK profile on increasing capsule size: didn't change
[4]
  liver concentration relative to its steady state level: > 80%
[5]
  form of CIVI 008 detected in plasma (HPLC peak): mixture of parent compound and metabolites
  form of CIVI 008 detected in plasma (HPLC retention time): absorbed intact
  mean Tmax: ≤ 30 min

## O=C([O-])CCCCCCCNC(=O)c1ccccc1O.[Na+] [SNAC, sodium 8-(2-hydroxybenzamido)octanoate, reference compound]
PCSK9
  mean PCSK9 reductions in control animals: comparatively small
Plasma LDL-cholesterol
  LDL-c in control animals: fluctuated around baseline values

## GalNac conjugated Factor FVII oligo: 13 nt ASO against Factor VII, SEQ ID NO 158, with (GalNAc3)(NHC6) moiety (antisense GCACCACGGTCCA; sugars from the 5' end l2 d8 l3, all phosphorothioate, 5' {GalNAc3NHC6}*, methylation of C not given here)
[6]; [11]
  concentrations in the plasma: measurable concentrations
[6]
  PK parameters compared to the corresponding CIVI 008 oligos: quite similar

## unconjugated Factor FVII oligo: 13 nt ASO against Factor VII, SEQ ID NO 158, GbsCbsdAsdCsdCsdAsdCsdGsdGsdTsCbsCbsAb (antisense GCACCACGGTCCA; sugars from the 5' end l2 d8 l3, all phosphorothioate, methylation of C not given here)
[6]; [11]
  concentrations in the plasma: measurable concentrations
[6]; [12]
  AUC relative to the GalNac conjugated Factor FVII oligo: ~3.5 fold
  Cmax relative to the GalNac conjugated Factor FVII oligo: ~3.5 fold
[6]
  PK parameters compared to the corresponding CIVI 008 oligos: quite similar

## CIVI 008 without GalNAc: 16 nt LNA gapmer AbsAbsTbsdGsdCsdTsdAsdCsdAsdAsdAsdAsdCsCbsCbsAb, SEQ ID NO 134, no GalNAc moiety (AATGCTACAAAACCCA; sugars from the 5' end l3 d10 l3, all phosphorothioate, methylation of C not given here)
[7]
  AUC relative to a similar dose of CIVI 008 with GalNac: ~8 fold
  Cmax relative to a similar dose of CIVI 008 with GalNac: ~8 fold
